The results in this text go back to patent publication US11267826B2, “Penicillin-binding protein inhibitors” (priority 2017, dated 2022).

The test system of one test is E. coli K12 PBP1a/b. The test is described as follows: Bocillin FL competition binding assay, PBP1a/1b combined. Also on record: species or system Escherichia coli K12. Conditions: 15 min pre-incubation, PBP 1a/1b combined. On the procedure: (§1) To determine the ability of test compounds to bind Penicillin Binding Proteins (PBPs), a competition binding assay using Bocillin FL (fluorescent derivative of penicillin V) was adapted from the classical method used to assess PBP potency of beta-lactams.
(§2) Penicillin binding proteins were isolated from Escherichia coli K12 by growth of Escherichia coli K12 from a single colony in 4 L of Luria-Bertani (LB) broth at 35° C. and 250 rpm to an OD600 nm of 0.5. The cells were harvested by centrifugation at 7,000×g for 10 min. at 4° C. Cells were resuspended and washed in 50 mM potassium phosphate pH 7.5. The cells were re-suspended in sonication buffer [50 mM Tris-HCl pH 7.5, 1 mM MgCl2, 1 mM beta-mercaptoethanol, and 5 μg/mL DNAse I] and sonicated by 4 passes of 30 seconds at 45 W on ice. The sample was clarified by centrifugation at 3,000×g to remove cell debris and unbroken cells and supernatant containing the membrane proteins was retained. The membrane proteins including the PBPs were further purified from soluble constituents by an ultracentrifugation step at 100,000×g for 30 min. at 4° C. The membrane proteins are washed twice with 10 mM sodium phosphate pH 7, resuspended in a volume of 5 mL, quantitated by BCA assay, adjusted to […] and frozen at −80° C. until use.
(§3) The adapted Bocillin FL competition binding method described herein incorporates a 15 min. pre-incubation of test compound with isolated PBPs to attempt to balance the difference in mechanism of inhibition between beta-lactams (largely irreversible covalent bond to active site Serine) and the boron-containing PBP inhibitor test compounds (reversible covalent bond to active site Serine). Briefly, 50 μL reactions consisted of 100 μg's of total membrane protein extracts containing PBPs incubated with a dilution series of test compound ranging from 0.005 μg/mL to 2,480 μg/mL in 10 mM sodium phosphate pH7 containing 350 mM NaCl. Thirty minute reactions at 35° C. were initiated by addition of […] Bocillin FL, quenched by addition of SDS-PAGE loading buffer containing sodium dodecyl sulfate (SDS) and heated for 15 minutes at 95° C. to denature proteins in preparation for SDS-polyacrylamide gel electrophoresis. The Bocillin FL labeled PBPs are then separated by SDS-PAGE in Novex NuPage 10% Bis-Tris pre-cast gels (Invitrogen). The SDS-PAGE gel, post-electrophoresis, is then washed in water to remove excess SDS for 10 minutes at room temperature and placed on the scanning bed of a GE Healthcare/Amersham Biosciences Storm 860 fluorescence scanner. The excitation wavelength is in the blue spectrum at 450 nm and the emission at 520 nm is captured by the instrument. Effective PBP inhibitors are detected by a reduction in Bocillin FL labeling of the particular PBP over the dose range of test compound in a dose-responsive manner. High molecular weight PBP 1a/1b are not resolved by these gels, thus we report HMW PBP binding results in μg/mL for PBPs 1a/1b combined as well as for PBP2 and PBP3.
(§4) Representative results are shown in Table 2, where A represents a potency of >1000 μg/mL, B represents a potency between 64 and 1000 μg/mL inclusive, and C represents a potency of <64 μg/mL. NT=Not Tested.

The target in another test is T1, E. coli PBP3 (Escherichia coli, UniProt P0AD68).
T1 construct: 100 μg's of total membrane protein extracts containing PBPs; endogenous in cells; host or cells: Escherichia coli K12, membrane protein fraction
The test is described as follows: Bocillin FL competition binding assay, PBP3. Also on record: species or system Escherichia coli K12. The note with it: 15 min pre-incubation. On the procedure: as §1, §2, §3, §4

The subject of the next test is S. aureus ATCC 29213. The test is described as follows: Broth microdilution MIC assay, S. aureus. The class given is cell-based. Conditions: Staphylococcus aureus, ATCC29213; broth microdilution, 16-20 hours at 37° C.; read-out: S. aureus 29213 MIC. The method, boiled down: (§5)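 Following CLSI procedures, compounds were serially diluted 2-fold and challenged with bacteria at 5×10^5 CFU/mL in Mueller-Hinton broth supplemented with divalent cations. After 16-20 hours at 37° C, the lowest concentration without visible growth was recorded as the MIC.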
(In broth dilution the organism is exposed to a series of concentrations in liquid medium.)

Test [1] has as its system hyper-permeable E. coli 901C. The test is described as follows: Broth microdilution MIC assay, hyper-permeable E. coli. The class given is cell-based. The note with it: Escherichia coli, read-out: E. coli 901C MIC. The method, boiled down:
as §5

In another test the target is T2, E. coli PBP2 (Escherichia coli, UniProt P0AD65).
T2 construct: 100 μg's of total membrane protein extracts containing PBPs; endogenous in cells; host or cells: Escherichia coli K12, membrane protein fraction
The test is described as follows: Bocillin FL competition binding assay, PBP2. Further details: species or system Escherichia coli K12. The note with it: 15 min pre-incubation. The procedure: as §1, §2, §3, §4

T2 sequence (P0AD65 whole entry): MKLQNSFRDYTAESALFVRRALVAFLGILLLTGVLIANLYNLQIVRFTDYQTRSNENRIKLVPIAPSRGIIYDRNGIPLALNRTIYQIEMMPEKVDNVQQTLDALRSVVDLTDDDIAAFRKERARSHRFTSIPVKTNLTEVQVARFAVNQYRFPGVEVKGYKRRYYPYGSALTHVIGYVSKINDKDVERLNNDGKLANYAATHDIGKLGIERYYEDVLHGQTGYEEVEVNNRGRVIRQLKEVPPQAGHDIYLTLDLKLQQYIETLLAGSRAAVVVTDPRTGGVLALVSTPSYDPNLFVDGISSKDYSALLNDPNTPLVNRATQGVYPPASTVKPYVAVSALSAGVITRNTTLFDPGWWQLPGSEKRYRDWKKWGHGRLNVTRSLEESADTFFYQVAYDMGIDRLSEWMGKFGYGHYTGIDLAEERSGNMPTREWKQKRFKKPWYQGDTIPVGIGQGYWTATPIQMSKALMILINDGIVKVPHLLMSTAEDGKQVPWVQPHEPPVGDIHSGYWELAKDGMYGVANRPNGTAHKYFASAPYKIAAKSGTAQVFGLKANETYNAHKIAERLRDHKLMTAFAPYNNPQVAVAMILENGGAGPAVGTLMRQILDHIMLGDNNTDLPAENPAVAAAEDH
T1 sequence (P0AD68 1-577): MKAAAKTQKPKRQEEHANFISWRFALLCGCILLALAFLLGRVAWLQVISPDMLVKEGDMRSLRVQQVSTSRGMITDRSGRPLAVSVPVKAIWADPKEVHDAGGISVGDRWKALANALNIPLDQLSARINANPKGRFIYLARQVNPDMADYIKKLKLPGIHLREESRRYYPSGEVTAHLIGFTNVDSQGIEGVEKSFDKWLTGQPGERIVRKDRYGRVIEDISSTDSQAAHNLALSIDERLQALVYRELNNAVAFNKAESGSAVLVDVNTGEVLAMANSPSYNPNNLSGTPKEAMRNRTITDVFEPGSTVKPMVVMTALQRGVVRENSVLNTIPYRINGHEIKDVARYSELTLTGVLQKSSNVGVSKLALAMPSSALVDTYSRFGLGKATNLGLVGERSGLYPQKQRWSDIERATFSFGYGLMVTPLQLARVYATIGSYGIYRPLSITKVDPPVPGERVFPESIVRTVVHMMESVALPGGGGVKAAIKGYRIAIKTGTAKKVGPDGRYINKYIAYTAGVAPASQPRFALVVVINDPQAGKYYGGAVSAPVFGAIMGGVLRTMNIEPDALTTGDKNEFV

Broadly, the MIC is the smallest concentration in the dilution series that meets the test's criterion for growth inhibition. Regarding `N#Cc1ccc(OCCO/N=C(\C(=O)N[C@H]2Cc3cccc(C(=O)O)c3OB2O)c2csc(N)n2)cc1` [Example 46, (R,Z)-3-(2-(2-aminothiazol-4-yl)-2-((2-(4-cyanophenoxy)ethoxy)imino)acetamido)-2-hydroxy-3,4-dihydro-2H-benzo[e][1,2]oxaborinine-8-carboxylic Acid], in the test with E. coli K12 PBP1a/b, the “E. coli K12 PBP1a/b Potency” value was “C (C represents a potency of <64 μg/mL)”. Further, the “E. coli PBP3 Potency” value on E. coli PBP3 was “B (B represents a potency between 64 and 1000 μg/mL inclusive)”. Further, the results for the MIC (with S. aureus ATCC 29213; in test [1]) were 64 to 128 µg/mL and less than 64 µg/mL, respectively. Moreover, the “E. coli PBP2 Potency” value at E. coli PBP2 is “C (C represents a potency of <64 μg/mL)”.
For the compound `Nc1nc(/C(=N/O)C(=O)N[C@H]2Cc3cc(F)c(F)c(C(=O)O)c3OB2O)cs1` [Example 41, (R,Z)-3-(2-(2-aminothiazol-4-yl)-2-(hydroxyimino)acetamido)-6,7-difluoro-2-hydroxy-3,4-dihydro-2H-benzo[e][1,2]oxaborinine-8-carboxylic Acid], the “E. coli K12 PBP1a/b Potency” value in the test on E. coli K12 PBP1a/b is “B (B represents a potency between 64 and 1000 μg/mL inclusive)”. For the same compound, the “E. coli PBP3 Potency” value at E. coli PBP3 is “B (B represents a potency between 64 and 1000 μg/mL inclusive)”. Further, the minimum inhibitory concentration (MIC) in the test with S. aureus ATCC 29213 is 64 to 128 µg/mL; in test [1], less than 64 µg/mL. In addition, the “E. coli PBP2 Potency” value on E. coli PBP2 is “B (B represents a potency between 64 and 1000 μg/mL inclusive)”.
Turning to `CC(O/N=C(\C(=O)N[C@H]1Cc2cccc(C(=O)O)c2OB1O)c1csc(N)n1)C(=O)O` (stereo partly drawn) [Example 71, (3R)-3-((Z)-2-(2-aminothiazol-4-yl)-2-((1-carboxyethoxy)imino)acetamido)-2-hydroxy-3,4-dihydro-2H-benzo[e][1,2]oxaborinine-8-carboxylic Acid], the “E. coli K12 PBP1a/b Potency” value in the test on E. coli K12 PBP1a/b is given as “C (C represents a potency of <64 μg/mL)”. Moreover, on E. coli PBP3, the “E. coli PBP3 Potency” value is “C (C represents a potency of <64 μg/mL)”. Further, the minimal inhibitory concentration (MIC) in the test on S. aureus ATCC 29213 was more than 128 µg/mL; in test [1], less than 64 µg/mL. The “E. coli PBP2 Potency” value on E. coli PBP2 was “C (C represents a potency of <64 μg/mL)”.
For the compound `N#CC1CCC(NC(=O)CO/N=C(\C(=O)N[C@H]2Cc3cccc(C(=O)O)c3OB2O)c2csc(N)n2)CC1` (stereo partly drawn) [Example 63, (R)-3-((Z)-2-(2-aminothiazol-4-yl)-2-((2-(((1s,4S)-4-cyanocyclohexyl)amino)-2-oxoethoxy)imino)acetamido)-2-hydroxy-3,4-dihydro-2H-benzo[e][1,2]oxaborinine-8-carboxylic Acid], the “E. coli K12 PBP1a/b Potency” value in the test on E. coli K12 PBP1a/b was “B (B represents a potency between 64 and 1000 μg/mL inclusive)”. Moreover, at E. coli PBP3, the “E. coli PBP3 Potency” value is “C (C represents a potency of <64 μg/mL)”. The “E. coli PBP2 Potency” value on E. coli PBP2 was “B (B represents a potency between 64 and 1000 μg/mL inclusive)”.
For the compound `Nc1nc(/C(=N\O)C(=O)N[C@H]2Cc3cccc(C(=O)O)c3OB2O)cs1` [Example 7, (R,E)-3-(2-(2-aminothiazol-4-yl)-2-(hydroxyimino)acetamido)-2-hydroxy-3,4-dihydro-2H-benzo[e][1,2]oxaborinine-8-carboxylic Acid], the “E. coli K12 PBP1a/b Potency” value in the test with E. coli K12 PBP1a/b was “A (A represents a potency of >1000 μg/mL)”. The “E. coli PBP3 Potency” value at E. coli PBP3 is “A (A represents a potency of >1000 μg/mL)”. Also, the values for the MIC (in the test on S. aureus ATCC 29213; in test [1]) were 64 to 128 µg/mL and less than 64 µg/mL, respectively. Moreover, at E. coli PBP2, the “E. coli PBP2 Potency” value is “B (B represents a potency between 64 and 1000 μg/mL inclusive)”.
With `Nc1nc(/C(=C/C(=O)O)C(=O)N[C@H]2Cc3cccc(C(=O)O)c3OB2O)cs1` [Example 89, (R,Z)-3-(2-(2-aminothiazol-4-yl)-3-carboxyacrylamido)-2-hydroxy-3,4-dihydro-2H-benzo[e][1,2]oxaborinine-8-carboxylic Acid], in the test with E. coli K12 PBP1a/b, the “E. coli K12 PBP1a/b Potency” value is given as “A (A represents a potency of >1000 μg/mL)”. In addition, the “E. coli PBP3 Potency” value at E. coli PBP3 is reported as “C (C represents a potency of <64 μg/mL)”. Also, the results for the MIC (with S. aureus ATCC 29213; in test [1]) were more than 128 µg/mL and 64 to 128 µg/mL, respectively. The “E. coli PBP2 Potency” value on E. coli PBP2 is “C (C represents a potency of <64 μg/mL)”.
With `NCCCC[C@H](NC(=O)CO/N=C(\C(=O)N[C@H]1Cc2cccc(C(=O)O)c2OB1O)c1csc(N)n1)C(=O)O` [Example 65, (R)-3-((Z)-2-((2-(((S)-5-amino-1-carboxypentyl)amino)-2-oxoethoxy)imino)-2-(2-aminothiazol-4-yl)acetamido)-2-hydroxy-3,4-dihydro-2H-benzo[e][1,2]oxaborinine-8-carboxylic], the “E. coli K12 PBP1a/b Potency” value in the test on E. coli K12 PBP1a/b was “C (C represents a potency of <64 μg/mL)”. Further, on E. coli PBP3, the “E. coli PBP3 Potency” value is “C (C represents a potency of <64 μg/mL)”. Moreover, the results for the MIC (in the test with S. aureus ATCC 29213; in test [1]) were more than 128 µg/mL and less than 64 µg/mL, respectively. For the same compound, at E. coli PBP2, the “E. coli PBP2 Potency” value was “B (B represents a potency between 64 and 1000 μg/mL inclusive)”.
Consider `Nc1nc(/C(=N/OCC(=O)NCCCCCNC(=O)CBr)C(=O)N[C@H]2Cc3cccc(C(=O)O)c3OB2O)cs1` [Example 78, (R,Z)-3-(2-(2-aminothiazol-4-yl)-15-bromo-6,14-dioxo-4-oxa-3,7,13-triazapentadec-2-enamido)-2-hydroxy-3,4-dihydro-2H-benzo[e][1,2]oxaborinine-8-carboxylic Acid], for which, in the test on E. coli K12 PBP1a/b, the “E. coli K12 PBP1a/b Potency” value was “B (B represents a potency between 64 and 1000 μg/mL inclusive)”. In addition, at E. coli PBP3, the “E. coli PBP3 Potency” value was “B (B represents a potency between 64 and 1000 μg/mL inclusive)”. Further, in test [1], the MIC is more than 128 µg/mL. Further, on E. coli PBP2, the “E. coli PBP2 Potency” value was “B (B represents a potency between 64 and 1000 μg/mL inclusive)”.
Turning to `O=C(N[C@H]1Cc2cccc(C(=O)O)c2OB1O)/C(=N/O)c1csc(NCCc2ccncc2)n1` [Example 124, (R,E)-2-hydroxy-3-(2-(hydroxyimino)-2-(2-((2-(pyridin-4-yl)ethyl)amino)thiazol-4-yl)acetamido)-3,4-dihydro-2H-benzo[e][1,2]oxaborinine-8-carboxylic Acid], the MIC (in the test with S. aureus ATCC 29213; in test [1]) was more than 128 µg/mL in each case.
For `Nc1nc(/C(=N/O)C(=O)N[C@H]2Cc3cc(F)cc(C(=O)O)c3OB2O)cs1` [Example 32, (R,Z)-3-(2-(2-aminothiazol-4-yl)-2-(hydroxyimino)acetamido)-6-fluoro-2-hydroxy-3,4-dihydro-2H-benzo[e][1,2]oxaborinine-8-carboxylic Acid], the MIC (with S. aureus ATCC 29213; in test [1]) was less than 64 µg/mL throughout.
For `Nc1nc(/C(=N/O)C(=O)N[C@H]2Cc3c(F)c(F)cc(C(=O)O)c3OB2O)cs1` [Example 40, (R,Z)-3-(2-(2-aminothiazol-4-yl)-2-(hydroxyimino)acetamido)-5,6-difluoro-2-hydroxy-3,4-dihydro-2H-benzo[e][1,2]oxaborinine-8-carboxylic Acid], the MIC is less than 64 µg/mL in the test with S. aureus ATCC 29213 and more than 128 µg/mL in test [1].
Taken in the same sequence, the figures for `Nc1nc(/C(=N/OCCO)C(=O)N[C@H]2Cc3cccc(C(=O)O)c3OB2O)cs1` [Example 13, (R,Z)-3-(2-(2-aminothiazol-4-yl)-2-((2-hydroxyethoxy)imino)acetamido)-2-hydroxy-3,4-dihydro-2H-benzo[e][1,2]oxaborinine-8-carboxylic Acid] were 64 to 128 µg/mL and more than 128 µg/mL.
Taken in the same sequence, the figures for `Nc1nc(C(=CCCC(=O)O)C(=O)N[C@H]2Cc3cccc(C(=O)O)c3OB2O)cs1` [Example 84, (R)-3-(2-(2-aminothiazol-4-yl)-5-carboxypent-2-enamido)-2-hydroxy-3,4-dihydro-2H-benzo[e][1,2]oxaborinine-8-carboxylic Acid] were more than 128 µg/mL and less than 64 µg/mL.
